Results: ChEMBL document CHEMBL3994622, “Design and synthesis of new RAF kinase-inhibiting antiproliferative quinoline derivatives. Part 2: Diarylurea derivatives” (Eur J Med Chem, 2017)

How the values were obtained:
Type in all cases: functional
HCT-116 = test: Growth inhibition of human HCT116 cells assessed as cell growth at 0.01 uM incubated for 48 hrs by sulforhodamine B assay relative to control; conditions: HCT-116, 48 h, read-out: Activity
U-251 = test: Growth inhibition of human U251 cells assessed as cell growth at 0.01 uM incubated for 48 hrs by sulforhodamine B assay relative to control; conditions: U-251, 48 h, read-out: Activity
SK-MEL-28 = test: Growth inhibition of human SK-MEL-28 cells assessed as cell growth at 0.01 uM incubated for 48 hrs by sulforhodamine B assay relative to control; conditions: SK-MEL-28, 48 h, read-out: Activity
A498 = test: Growth inhibition of human A498 cells assessed as cell growth at 0.01 uM incubated for 48 hrs by sulforhodamine B assay relative to control; conditions: A498, 48 h, read-out: Activity
HL-60(TB) [1] = test: Growth inhibition of human HL-60(TB) cells assessed as cell growth at 0.1 uM incubated for 48 hrs by sulforhodamine B assay relative to control; conditions: HL-60, 48 h, read-out: Activity
SN12C [2] = test: Growth inhibition of human SN12C cells assessed as cell growth at 0.1 uM incubated for 48 hrs by sulforhodamine B assay relative to control; conditions: read-out: Activity
MDA-MB-231 [3] = test: Growth inhibition of human MDA-MB-231 cells assessed as cell growth at 0.1 uM incubated for 48 hrs by sulforhodamine B assay relative to control; conditions: MDA-MB-231, 48 h, read-out: Activity
CAKI-1 = test: Growth inhibition of human Caki1 cells assessed as cell growth at 1 uM incubated for 48 hrs by sulforhodamine B assay relative to control; conditions: CAKI-1, 48 h, read-out: Activity
HL-60(TB) [4] = test: Growth inhibition of human HL-60(TB) cells assessed as cell growth at 10 uM incubated for 48 hrs by sulforhodamine B assay relative to control; conditions: HL-60, 48 h, read-out: Activity
COLO 205 = test: Growth inhibition of human COLO205 cells assessed as cell growth at 10 uM incubated for 48 hrs by sulforhodamine B assay relative to control; conditions: COLO 205, 48 h, read-out: Activity
MDA-MB-435 = test: Growth inhibition of human MDA-MB-435 cells assessed as cell growth at 10 uM incubated for 48 hrs by sulforhodamine B assay relative to control; conditions: MDA-MB-435, 48 h, read-out: Activity
SK-MEL-2 [5] = test: Growth inhibition of human SK-MEL-2 cells assessed as cell growth at 100 uM incubated for 48 hrs by sulforhodamine B assay relative to control; conditions: SK-MEL-2, 48 h, read-out: Activity
SN12C [6] = test: Growth inhibition of human SN12C cells assessed as cell growth at 100 uM incubated for 48 hrs by sulforhodamine B assay relative to control; conditions: read-out: Activity
MDA-MB-468 = test: Growth inhibition of human MDA-MB-468 cells incubated for 48 hrs by sulforhodamine B assay; conditions: MDA-MB-468, 48 h
UACC-257 = test: Growth inhibition of human UACC257 cells assessed as cell growth at 0.003 uM incubated for 48 hrs by sulforhodamine B assay relative to control; conditions: UACC-257, 48 h, read-out: Activity
SN12C [7] = test: Growth inhibition of human SN12C cells assessed as cell growth at 0.003 uM incubated for 48 hrs by sulforhodamine B assay relative to control; conditions: read-out: Activity
MCF7 = test: Growth inhibition of human MCF7 cells assessed as cell growth at 0.003 uM incubated for 48 hrs by sulforhodamine B assay relative to control; conditions: MCF7, 48 h, read-out: Activity
HT-29 = test: Growth inhibition of human HT-29 cells assessed as cell growth at 0.03 uM incubated for 48 hrs by sulforhodamine B assay relative to control; conditions: HT-29, 48 h, read-out: Activity
SW-620 [8] = test: Growth inhibition of human SW620 cells assessed as cell growth at 0.03 uM incubated for 48 hrs by sulforhodamine B assay relative to control; conditions: SW-620, 48 h, read-out: Activity
SF-539 = test: Growth inhibition of human SF539 cells assessed as cell growth at 0.03 uM incubated for 48 hrs by sulforhodamine B assay relative to control; conditions: SF-539, 48 h, read-out: Activity
SNB-19 = test: Growth inhibition of human SNB19 cells assessed as cell growth at 0.03 uM incubated for 48 hrs by sulforhodamine B assay relative to control; conditions: SNB-19, 48 h, read-out: Activity
SK-MEL-2 [9] = test: Growth inhibition of human SK-MEL-2 cells assessed as cell growth at 0.03 uM incubated for 48 hrs by sulforhodamine B assay relative to control; conditions: SK-MEL-2, 48 h, read-out: Activity
IGROV-1 = test: Growth inhibition of human IGROV1 cells assessed as cell growth at 0.03 uM incubated for 48 hrs by sulforhodamine B assay relative to control; conditions: IGROV-1, 48 h, read-out: Activity
T47D = test: Growth inhibition of human T47D cells assessed as cell growth at 0.03 uM incubated for 48 hrs by sulforhodamine B assay relative to control; conditions: read-out: Activity
NCI/ADR-RES = test: Growth inhibition of human NCI/ADR-RES cells assessed as cell growth at 0.3 uM incubated for 48 hrs by sulforhodamine B assay relative to control; conditions: read-out: Activity
NCI-H322M = test: Growth inhibition of human NCI-H322M cells assessed as cell growth at 3 uM incubated for 48 hrs by sulforhodamine B assay relative to control; conditions: read-out: Activity
SW-620 [10] = test: Growth inhibition of human SW620 cells assessed as cell growth at 3 uM incubated for 48 hrs by sulforhodamine B assay relative to control; conditions: SW-620, 48 h, read-out: Activity
Malme-3M = test: Growth inhibition of human MALME-3M cells assessed as cell growth at 3 uM incubated for 48 hrs by sulforhodamine B assay relative to control; conditions: read-out: Activity
A549 = test: Growth inhibition of human A549/ATCC cells assessed as cell growth at 30 uM incubated for 48 hrs by sulforhodamine B assay relative to control; conditions: A549, 48 h, read-out: Activity
SK-MEL-5 = test: Growth inhibition of human SK-MEL-5 cells assessed as cell growth at 30 uM incubated for 48 hrs by sulforhodamine B assay relative to control; conditions: SK-MEL-5, 48 h, read-out: Activity
UACC-62 = test: Growth inhibition of human UACC62 cells assessed as cell growth at 30 uM incubated for 48 hrs by sulforhodamine B assay relative to control; conditions: UACC-62, 48 h, read-out: Activity
PC-3 = test: Growth inhibition of human PC3 cells assessed as cell growth at 30 uM incubated for 48 hrs by sulforhodamine B assay relative to control; conditions: PC-3, 48 h, read-out: Activity
MDA-MB-231 [11] = test: Growth inhibition of human MDA-MB-231 cells assessed as cell growth at 30 uM incubated for 48 hrs by sulforhodamine B assay relative to control; conditions: MDA-MB-231, 48 h, read-out: Activity
Hs-578T = test: Growth inhibition of human Hs 578T cells assessed as cell growth at 30 uM incubated for 48 hrs by sulforhodamine B assay relative to control; conditions: read-out: Activity

Question: `COc1cc2cc(Oc3ccc(NC(=O)Nc4ccc(Cl)c(Cl)c4)cc3)c(C)nc2cc1OC` was tested. Which growth at 0.01 µM (HCT-116) did it give?
Answer: 89%

Question: And the growth at 0.01 µM (U-251)?
Answer: 94%

Question: And the growth at 0.01 µM (SK-MEL-28)?
Answer: 101%

Question: What about the growth at 0.01 µM (A498) of the same molecule?
Answer: 82%

Question: And the growth at 0.1 µM (HL-60(TB) [1])?
Answer: 109%

Question: And the growth at 0.1 µM (SN12C [2])?
Answer: 95%

Question: And the growth at 0.1 µM (MDA-MB-231 [3])?
Answer: 92%

Question: And the growth at 1 µM (CAKI-1)?
Answer: 83%

Question: And the growth at 10 µM (HL-60(TB) [4])?
Answer: -22%

Question: What about the growth at 10 µM (COLO 205) of the same molecule?
Answer: -25%

Question: And the growth at 10 µM (MDA-MB-435)?
Answer: 13%

Question: And the growth at 100 µM (SK-MEL-2 [5])?
Answer: -100%

Question: And the growth at 100 µM (SN12C [6])?
Answer: -41%

Question: Which GI50 (MDA-MB-468) does the source give for `COc1cc2cc(Oc3ccc(NC(=O)Nc4cc(C(F)(F)F)cc(C(F)(F)F)c4)cc3)c(C)nc2cc1OC` here?
Answer: 1.08 µM

Question: And the TGI (MDA-MB-468)?
Answer: 3.96 µM

Question: And the growth at 0.01 µM (HCT-116)?
Answer: 97%

Question: And the growth at 0.01 µM (U-251)?
Answer: 100%

Question: What about the growth at 0.01 µM (SK-MEL-28) of the same molecule?
Answer: 91%

Question: What about the growth at 0.01 µM (A498) of the same molecule?
Answer: 97%

Question: What about the growth at 0.1 µM (HL-60(TB) [1]) of the same molecule?
Answer: 84%

Question: And the growth at 0.1 µM (SN12C [2])?
Answer: 100%

Question: And the growth at 0.1 µM (MDA-MB-231 [3])?
Answer: 98%

Question: What about the growth at 1 µM (CAKI-1) of the same molecule?
Answer: 63%

Question: And the growth at 10 µM (HL-60(TB) [4])?
Answer: -41%

Question: What about the growth at 10 µM (COLO 205) of the same molecule?
Answer: -74%

Question: What about the growth at 10 µM (MDA-MB-435) of the same molecule?
Answer: -49%

Question: And the growth at 100 µM (SK-MEL-2 [5])?
Answer: -69%

Question: And the growth at 100 µM (SN12C [6])?
Answer: -74%

Question: How did the growth at 0.003 µM (UACC-257) turn out when `COc1cc2cc(Oc3ccc(NC(=O)Nc4ccc(Cl)c(C(F)(F)F)c4)cc3)c(C)nc2cc1OC` was run?
Answer: 94%

Question: And the growth at 0.003 µM (SN12C [7])?
Answer: 98%

Question: What about the growth at 0.003 µM (MCF7) of the same molecule?
Answer: 98%

Question: What about the growth at 0.03 µM (HT-29) of the same molecule?
Answer: 100%

Question: What about the growth at 0.03 µM (SW-620 [8]) of the same molecule?
Answer: 100%

Question: What about the growth at 0.03 µM (SF-539) of the same molecule?
Answer: 100%

Question: And the growth at 0.03 µM (SNB-19)?
Answer: 95%

Question: And the growth at 0.03 µM (SK-MEL-2 [9])?
Answer: 97%

Question: What about the growth at 0.03 µM (IGROV-1) of the same molecule?
Answer: 107%

Question: And the growth at 0.03 µM (T47D)?
Answer: 94%

Question: What about the growth at 0.3 µM (NCI/ADR-RES) of the same molecule?
Answer: 94%

Question: What about the growth at 3 µM (NCI-H322M) of the same molecule?
Answer: 35%

Question: What about the growth at 3 µM (SW-620 [10]) of the same molecule?
Answer: 15%

Question: What about the growth at 3 µM (Malme-3M) of the same molecule?
Answer: 12%

Question: What about the growth at 30 µM (A549) of the same molecule?
Answer: -80%

Question: And the growth at 30 µM (SK-MEL-5)?
Answer: -97%

Question: And the growth at 30 µM (UACC-62)?
Answer: -75%

Question: What about the growth at 30 µM (PC-3) of the same molecule?
Answer: -50%

Question: What about the growth at 30 µM (MDA-MB-231 [11]) of the same molecule?
Answer: -74%

Question: And the growth at 30 µM (Hs-578T)?
Answer: -53%

Question: Which GI50 (MDA-MB-468) does the source give for `Cc1nc2cc(O)c(O)cc2cc1Oc1ccc(NC(=O)Nc2ccc(Cl)c(Cl)c2)cc1` here?
Answer: 6.99 µM

Question: What about the TGI (MDA-MB-468) of the same molecule?
Answer: 17.4 µM

Question: And the CC50 (MDA-MB-468; read-out: LC50 (the source's name))?
Answer: > 32.5 µM

Question: What about the growth at 0.003 µM (UACC-257) of the same molecule?
Answer: 85%

Question: And the growth at 0.003 µM (SN12C [7])?
Answer: 100%

Question: And the growth at 0.003 µM (MCF7)?
Answer: 94%

Question: And the growth at 0.03 µM (HT-29)?
Answer: 103%

Question: What about the growth at 0.03 µM (SW-620 [8]) of the same molecule?
Answer: 97%

Question: And the growth at 0.03 µM (SF-539)?
Answer: 105%

Question: What about the growth at 0.03 µM (SNB-19) of the same molecule?
Answer: 103%

Question: What about the growth at 0.03 µM (SK-MEL-2 [9]) of the same molecule?
Answer: 113%

Question: What about the growth at 0.03 µM (IGROV-1) of the same molecule?
Answer: 104%

Question: And the growth at 0.03 µM (T47D)?
Answer: 102%

Question: What about the growth at 0.3 µM (NCI/ADR-RES) of the same molecule?
Answer: 97%

Question: And the growth at 3 µM (NCI-H322M)?
Answer: 105%

Question: What about the growth at 3 µM (SW-620 [10]) of the same molecule?
Answer: 57%

Question: And the growth at 3 µM (Malme-3M)?
Answer: 94%

Question: What about the growth at 30 µM (A549) of the same molecule?
Answer: -10%

Question: And the growth at 30 µM (SK-MEL-5)?
Answer: -47%

Question: And the growth at 30 µM (UACC-62)?
Answer: -78%

Question: What about the growth at 30 µM (PC-3) of the same molecule?
Answer: 6%

Question: What about the growth at 30 µM (MDA-MB-231 [11]) of the same molecule?
Answer: 6%

Question: What about the growth at 30 µM (Hs-578T) of the same molecule?
Answer: 16%
